The subject of one data set is AMPK. As to the kind of experiment: AMPK activity of double or triple combinations of tanshinone derivatives in muscle cells. Format: cell-based. The note with it: combinations of the four tanshinone derivatives. How it is done:
Using muscle cells, this example was carried out to confirm synergistic effects of AMPK activity with respect to the combination ratio between derivatives, which contained tanshinone I, tanshinone IIA, cryptotanshinone and 15,16-dihydrotanshinone I, as main ingredients. That is, we have attempted to confirm inter-complementary functions between derivatives according to gene expression as shown in Example 5 and thereby synergistic effects by any combination of tanshinone derivatives through AMPK activity.
The respective ingredients of tanshinone I, tanshinone IIA, cryptotanshinone and 15,16-dihydrotanshinone I were doubly or triply combined to prepare different compositions. AMPK activity of the prepared compositions and the AMPK activity of respective ingredients included in those compositions were compared to confirm synergistic effects. In addition, we have attempted to confirm AMPK activity with respect to changes in the combination ratio by varying the ratio between ingredients in the compositions, and to obtain synergistic effects of activity by any combination of tanshinone derivatives.

For data set [1], the system named is cardiac myocytes. The note with it: Biochemical Pharmacology 64, 745-750 (2002); cited from earlier work.
In another data set the test system is mitochondria. The note with it: Biochemical Pharmacology 65, 51-57, 2003; cited from earlier work.
Data set [2] deals with cardiac myocytes. The note with it: Planta Med. 2002, 68, 1103-1107; cited from earlier work.
For the next data set, the system named is cardiac fibroblasts. The note with it: Planta Med. 2002, 68, 1103-1107; cited from earlier work.
The test system of another data set is hepatocytes. The note with it: Planta Med. 2002, 68, 1077-1081; cited from earlier work.

For tanshinone I, the “enhancement effect on AMPK activity by combinational use of two or more of these compounds” value (shortened to “enhancement effect on AMPK activity”) in the data set on AMPK was “significantly increased”.

As to `Cc1c(S(=O)(=O)O)oc2c1C(=O)C(=O)c1c-2ccc2c1CCCC2(C)C` [tanshinone IIA sulfonate], the “hypertrophy of cardiac myocytes induced by angiotensin II” value with cardiac myocytes [1] is given as “attenuates hypertrophy of cardiac myocytes induced by angiotensin II”. In the data set on mitochondria, the “electron-transfer reaction in mitochondria” value is reported as “facilitates an electron-transfer reaction in mitochondria”.

For `Cc1cccc2c3c(ccc12)C(O)=C(C(C)CO)C(=O)C3=O` (stereo not drawn) [tanshinone VI], in the data set with cardiac myocytes [2], the “hypertrophy of cardiac myocytes” value was “attenuates hypertrophy of cardiac myocytes”. For the same compound, the “synthesis of collagen by cardiac fibroblasts” value in the data set with cardiac fibroblasts is listed as “inhibits synthesis of collagen by cardiac fibroblasts”.

In the case of `C[C@H]1COC2=C1C(=O)C(=O)c1c2ccc2c1CCCC2(C)C` [cryptotanshinone], the “enhancement effect on AMPK activity” value in the data set on AMPK is “significantly increased”.

Regarding `Cc1coc2c1C(=O)C(=O)c1c-2ccc2c1CCCC2(C)C` [tanshinone IIA], the “enhancement effect on AMPK activity” value in the data set with AMPK is listed as “significantly increased”.

Turning to `Cc1cccc2c3c(ccc12)C(=O)C1=C(OCC1C)C3=O` (stereo not drawn) [dihydroisotanshinone I], in the data set on hepatocytes, the “effect against menadione-induced cytotoxicity in hepatocytes” value is recorded as “hepatoprotective effects”.

For the compound 15,16-Dihydrotanshinone I, in the data set on AMPK, the “enhancement effect on AMPK activity” value is listed as “significantly increased”.

The values above are taken from patent publication US8029832B2, “Obesity and metabolic syndrome treatment with tanshinone derivatives which increase metabolic activity” (priority 2003, dated 2011).
